Measured values published in patent US9890171B2, “Aldosterone synthase inhibitors” (Boehringer Ingelheim International GmbH, priority 2014, dated 2018).

Target: aldosterone synthase (CYP11B2) (Macaca fascicularis, UniProt A0A2K5UPL9)
Assay: aldosterone synthase inhibition assay
Format: biochemical, cynomolgus monkey
Conditions: cynomolgus adrenal gland mitochondria, 2 μM corticosterone, aldosterone quantified by mass spectrometry
Method: The aldosterone synthase inhibition assay employs cynomolgus adrenal gland mitochondria as the source of aldosterone synthase (CYP11B2). Mitochondria are prepared from frozen cynomolgus monkey adrenal glands according to Method A described in by J. D. McGarry et al. (Biochem. J., 1983, 214, 21-28), with a final resuspension in the AT buffer described in R. Yamaguchi et al. (Cell Death and Differentiation, 2007, 14, 616-624), frozen as aliquots in liquid nitrogen and stored at −80° C. until use.
Assays are performed in 96-well format in a final volume of 60 μL/well, containing 100 mM potassium phosphate, pH 7.4, 1% (v/v) DMSO, and additionally, 2 μM of corticosterone and […] of mitochondrial protein. Reactions are started by the addition of NADPH to 1 mM and allowed to proceed for 60-90 minutes at 37° C. Reactions are terminated by the addition of […]. One hundred microliters are then transferred to a glass filter plate and centrifuged at 570×g for 5 minutes and the filtrate is collected. Reaction product aldosterone is quantified by mass spectrometry. To determine the assay blank value (0% activity), NADPH is omitted from some reactions.
Dose dependent inhibition is quantified by the inclusion of compound at various concentrations. Maximum activity (100%) is defined by reactions containing NADPH, but without compound. Activities at each concentration are expressed as a percentage of the maximum activity (y-axis) and plotted against concentration of compound (x-axis) and the concentration corresponding to 50% activity (IC50) determined using the XLFit curve-fitting program using a 4-parameter logistic model.

aldosterone synthase (CYP11B2), sequence (A0A2K5UPL9 1-503): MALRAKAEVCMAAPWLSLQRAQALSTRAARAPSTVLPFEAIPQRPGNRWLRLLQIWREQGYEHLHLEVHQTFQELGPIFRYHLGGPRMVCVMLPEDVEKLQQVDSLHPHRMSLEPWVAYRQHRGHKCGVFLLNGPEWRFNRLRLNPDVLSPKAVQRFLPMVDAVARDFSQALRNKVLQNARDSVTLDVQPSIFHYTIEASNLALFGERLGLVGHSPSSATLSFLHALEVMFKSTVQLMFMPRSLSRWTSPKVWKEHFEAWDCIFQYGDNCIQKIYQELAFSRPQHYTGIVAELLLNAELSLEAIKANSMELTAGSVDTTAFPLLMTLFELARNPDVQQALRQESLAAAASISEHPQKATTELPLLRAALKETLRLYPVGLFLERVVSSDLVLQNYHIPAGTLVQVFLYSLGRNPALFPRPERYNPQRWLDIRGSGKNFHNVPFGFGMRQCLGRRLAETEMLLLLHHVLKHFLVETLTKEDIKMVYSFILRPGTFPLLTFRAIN

IC50 | SMILES
1470 nM | OC1CCOc2ccc(-c3cncc4c3COCC4O)cc21 (single isomer, unassigned) [Compound 131, 8-(4-Hydroxy-chroman-6-yl)-3,4-dihydro-1H-pyrano[4,3-c]pyridin-4-ol]
51.1 nM | NC(=O)c1cccc2cc(-c3cncc4c3COCC4O)cnc12 (single isomer, unassigned) [Compound 105, 3-(4-Hydroxy-3,4-dihydro-1H-pyrano[4,3-c]pyridin-8-yl)-quinoline-8-carboxylic acid amide]
114 nM | OC1c2cncc(-c3ccc4c(c3)COCCO4)c2COC12CC2 (single isomer, unassigned) [Compound 111, 8-(3,5-dihydro-2H-1,4-benzo[e][1,4]dioxepin-7-yl)spiro[1,4-dihydropyrano[4,3-c]pyridine-3,1′-cyclopropane]-4-ol]
7.6 nM | Cn1nc(F)c2ccc(-c3cncc4c3COCC4O)cc21 (single isomer, unassigned) [Compound 55, 8-(3-Fluoro-1-methyl-1H-indazol-6-yl)-3,4-dihydro-1H-pyrano[4,3-c]pyridin-4-ol]
10000 nM | CCS(=O)(=O)NC1COCc2c(-c3ccc4c(c3)C(O)CCO4)cncc21 (single isomer, unassigned) [Compound 136, Ethanesulfonic acid [8-(4-hydroxy-chroman-6-yl)-3,4-dihydro-1H-pyrano[4,3-c]pyridin-4-yl]-amide]
681 nM | OC1COCc2c(-c3ccc4scnc4c3)cncc21 (single isomer, unassigned) [Compound 20, 8-Benzothiazol-5-yl-3,4-dihydro-1H-pyrano[4,3-c]pyridin-4-ol]
312 nM | CCC(=O)NC1COCc2c(-c3ccc4onc(C)c4c3)cncc21 (single isomer, unassigned) [Compound 156, N-[8-(3-Methyl-benzo[d]isoxazol-5-yl)-3,4-dihydro-1H-pyrano[4,3-c]pyridin-4-yl]-propionamide]
153 nM | Cn1ncc2cc(F)c(-c3cncc4c3COCC4O)cc21 (single isomer, unassigned) [Compound 19, 8-(5-Fluoro-1-methyl-1H-indazol-6-yl)-3,4-dihydro-1H-pyrano[4,3-c]pyridin-4-ol]
13.4 nM | Cn1ncc2c(F)cc(-c3cncc4c3COCC4(C)O)cc21 (single isomer, unassigned) [Compound 176, 8-(4-Fluoro-1-methyl-1H-indazol-6-yl)-4-methyl-3,4-dihydro-1H-pyrano[4,3-c]pyridin-4-ol]
35.3 nM | NC(=O)N1CCCc2cc(-c3cncc4c3C(O)COC4)cnc21 (single isomer, unassigned) [Compound 161, 6-(4-Hydroxy-3,4-dihydro-1H-pyrano[3,4-c]pyridin-5-yl)-3,4-dihydro-2H-[1,8]naphthyridine-1-carboxylic acid amide]
1690 nM | CCC(=O)NC1COCc2c(-c3ccc4c(c3)OCCNC4=O)cncc21 (single isomer, unassigned) [Compound 147, N-[8-(5-Oxo-2,3,4,5-tetrahydro-benzo[f][1,4]oxazepin-8-yl)-3,4-dihydro-1H-pyrano[4,3-c]pyridin-4-yl]-propionamide]
12.5 nM | O=C1CCCc2cc(-c3cncc4c3COCC4O)ccc21 (single isomer, unassigned) [Compound 118, 6-(4-Hydroxy-3,4-dihydro-1H-pyrano[4,3-c]pyridin-8-yl)-3,4-dihydro-2H-naphthalen-1-one]
36.1 nM | CCS(=O)(=O)NC1COCc2c(-c3ccc4nnn(C)c4c3)cncc21 (single isomer, unassigned) [Compound 65, Ethanesulfonic acid [8-(3-methyl-3H-benzotriazol-5-yl)-3,4-dihydro-1H-pyrano[4,3-c]pyridin-4-yl]-amide]
166 nM | Cc1cc2cnn(C)c2cc1-c1cncc2c1COCC2N (single isomer, unassigned) [Compound 70, 8-(1,5-Dimethyl-1H-indazol-6-yl)-3,4-dihydro-1H-pyrano[4,3-c]pyridin-4-ylamine]
110 nM | CCS(=O)(=O)NC1COCc2c(-c3ccc4ncn(C)c4c3)cncc21 (single isomer, unassigned) [Compound 67, Ethanesulfonic acid [8-(3-methyl-3H-benzoimidazol-5-yl)-3,4-dihydro-1H-pyrano[4,3-c]pyridin-4-yl]-amide]
11.2 nM | CCC(=O)NC1COCc2c(-c3ccc4c(Cl)n[nH]c4c3)cncc21 (single isomer, unassigned) [Compound 128, N-[8-(3-Chloro-1H-indazol-6-yl)-3,4-dihydro-1H-pyrano[4,3-c]pyridin-4-yl]-propionamide]
611 nM | CCS(=O)(=O)NC1COCc2c(-c3ccc4c(c3)CC(=O)N4)cncc21 (single isomer, unassigned) [Compound 64, Ethanesulfonic acid [8-(2-oxo-2,3-dihydro-1H-indol-5-yl)-3,4-dihydro-1H-pyrano[4,3-c]pyridin-4-yl]-amide]

IC50 | SMILES
149 nM | CN1C(=O)Cc2cc(-c3cncc4c3COCC4O)ccc21 (single isomer, unassigned) [Compound 54, 5-(4-Hydroxy-3,4-dihydro-1H-pyrano[4,3-c]pyridin-8-yl)-1-methyl-1,3-dihydro-indol-2-one]
1000 nM | CCS(=O)(=O)NC1COCc2c(-c3ccc4c(C)n[nH]c4c3)cncc21 (single isomer, unassigned) [Compound 66, Ethanesulfonic acid [8-(3-methyl-1H-indazol-6-yl)-3,4-dihydro-1H-pyrano[4,3-c]pyridin-4-yl]-amide]
766 nM | Cc1nnc2ccc(-c3cncc4c3COCC4O)cn12 (single isomer, unassigned) [Compound 95, 8-(3-Methyl-[1,2,4]triazolo[4,3-a]pyridin-6-yl)-3,4-dihydro-1H-pyrano[4,3-c]pyridin-4-ol]
186 nM | OC1COCc2c(-c3cnc4[nH]ccc4c3)cncc21 (single isomer, unassigned) [Compound 40, 8-(1H-Pyrrolo[2,3-b]pyridin-5-yl)-3,4-dihydro-1H-pyrano[4,3-c]pyridin-4-ol]
1300 nM | OC1COCc2c(-c3cnc4[nH]ccc4c3)cncc21 (single isomer, unassigned) [Compound 27, 8-(1H-Pyrrolo[2,3-b]pyridin-5-yl)-3,4-dihydro-1H-pyrano[4,3-c]pyridin-4-ol]
115 nM | Cc1n[nH]c2ccc(-c3cncc4c3COCC4O)cc12 (single isomer, unassigned) [Compound 10, 8-(3-Methyl-1H-indazol-5-yl)-3,4-dihydro-1H-pyrano[4,3-c]pyridin-4-ol]
22 nM | OC1COCc2c(-c3ccc4c(c3)OCCCO4)cncc21 (single isomer, unassigned) [Compound 43, 8-(3,4-Dihydro-2H-benzo[b][1,4]dioxepin-7-yl)-3,4-dihydro-1H-pyrano[4,3-c]pyridin-4-ol]
13 nM | O=c1ccoc2cc(-c3cncc4c3COCC4O)ccc12 (single isomer, unassigned) [Compound 110, 7-(4-Hydroxy-3,4-dihydro-1H-pyrano[4,3-c]pyridin-8-yl)-chromen-4-one]
95 nM | O=C1NCCc2cc(-c3cncc4c3COCC4O)ccc21 (single isomer, unassigned) [Compound 121, 6-(4-Hydroxy-3,4-dihydro-1H-pyrano[4,3-c]pyridin-8-yl)-3,4-dihydro-2H-isoquinolin-1-one]
1500 nM | Cc1nn(C)c(C)c1-c1cncc2c1COCC2O (single isomer, unassigned) [Compound 26, 8-(1,3,5-Trimethyl-1H-pyrazol-4-yl)-3,4-dihydro-1H-pyrano[4,3-c]pyridin-4-ol]
64.1 nM | O=C1Cc2cc(-c3cncc4c3COCC4O)ccc2N1 (single isomer, unassigned) [Compound 52, 5-(4-Hydroxy-3,4-dihydro-1H-pyrano[4,3-c]pyridin-8-yl)-1,3-dihydro-indol-2-one]
17.9 nM | CCC(=O)NC1COCc2c(-c3ccc4cnn(C)c4c3)cncc21 (single isomer, unassigned) [Compound 76, N-[8-(1-Methyl-1H-indazol-6-yl)-3,4-dihydro-1H-pyrano[4,3-c]pyridin-4-yl]-propionamide]
340 nM | Cn1ncc2c(C#N)cc(-c3cncc4c3COCC4(C)O)cc21 (single isomer, unassigned) [Compound 173, 6-(4-Hydroxy-4-methyl-3,4-dihydro-1H-pyrano[4,3-c]pyridin-8-yl)-1-methyl-1H-indazole-4-carbonitrile]
50 nM | OC1COCc2c(-c3ccc4[nH]ncc4c3)cncc21 (single isomer, unassigned) [Compound 47, 8-(1H-Indazol-5-yl)-3,4-dihydro-1H-pyrano[4,3-c]pyridin-4-ol]
7.8 nM | Cn1ncc2ccc(-c3cncc4c3COCC4(C)O)cc21 (single isomer, unassigned) [Compound 170, 4-Methyl-8-(1-methyl-1H-indazol-6-yl)-3,4-dihydro-1H-pyrano[4,3-c]pyridin-4-ol]
11.5 nM | Cn1ncc2c(F)cc(-c3cncc4c3COC3(CC3)C4O)cc21 (single isomer, unassigned) [Compound 92, 8-(4-fluoro-1-methyl-indazol-6-yl)spiro[1,4-dihydropyrano[4,3-c]pyridine-3,1′-cyclopropane]-4-ol]
